Molecules are shown by their SMILES. Like-named read-outs stand apart in the source and are kept apart here.

The source of these data is patent US8173689B2 (Novartis AG, priority 2006, dated 2012).

For test [1], the target named is T1, cytoplasmic domain of the human CSF-1R (Homo sapiens, UniProt P07333).
T1 construct: Recombinant protein corresponding to the cytoplasmic domain of the human CSF-1R; purchased Invitrogen Corporation, Carlsbad, Calif; PV3249
T1 sequence (P07333 539-972 limits assumed): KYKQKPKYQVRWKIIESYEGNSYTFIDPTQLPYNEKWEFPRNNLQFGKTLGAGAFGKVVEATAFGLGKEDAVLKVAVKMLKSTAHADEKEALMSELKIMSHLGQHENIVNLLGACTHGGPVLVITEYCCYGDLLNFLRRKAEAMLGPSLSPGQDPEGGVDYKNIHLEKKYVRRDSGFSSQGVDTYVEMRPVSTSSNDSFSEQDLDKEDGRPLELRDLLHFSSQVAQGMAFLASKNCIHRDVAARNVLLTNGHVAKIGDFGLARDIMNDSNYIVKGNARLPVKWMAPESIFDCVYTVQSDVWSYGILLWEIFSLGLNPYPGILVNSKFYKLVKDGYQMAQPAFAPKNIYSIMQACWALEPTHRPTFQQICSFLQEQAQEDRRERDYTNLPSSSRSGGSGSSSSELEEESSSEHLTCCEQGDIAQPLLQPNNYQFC
The test can be described thus: In vitro kinase assay for colony stimulating factor-1 receptor (AlphaScreen). The test is classed as biochemical. The settings on record: tested at about 1 μM, read-out: CSF-1R percent inhibition. In short, it runs like this:
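Test compounds, serially diluted threefold starting at 25 μM, were mixed with Hepes buffer (pH 7.5, Mg2+/Mn2+, DTT, BSA, Tween 80) containing 1 μM ATP. Recombinant kinase was present at 4 nM. After stopping, beads were added and plates were read the next day by AlphaScreen.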
In general terms: In Alpha technology, singlet oxygen from a donor bead excites a nearby acceptor bead.

The target of test [2] is T2, full-length human CSF-1R receptor (Homo sapiens, UniProt P07333).
T2 construct: transfected with the full-length human CSF-1R receptor cloned in house; expressed in transfected cells; host or cells: HEK293H (Invitrogen Cat. #11631017)
T2 sequence (P07333 20-972): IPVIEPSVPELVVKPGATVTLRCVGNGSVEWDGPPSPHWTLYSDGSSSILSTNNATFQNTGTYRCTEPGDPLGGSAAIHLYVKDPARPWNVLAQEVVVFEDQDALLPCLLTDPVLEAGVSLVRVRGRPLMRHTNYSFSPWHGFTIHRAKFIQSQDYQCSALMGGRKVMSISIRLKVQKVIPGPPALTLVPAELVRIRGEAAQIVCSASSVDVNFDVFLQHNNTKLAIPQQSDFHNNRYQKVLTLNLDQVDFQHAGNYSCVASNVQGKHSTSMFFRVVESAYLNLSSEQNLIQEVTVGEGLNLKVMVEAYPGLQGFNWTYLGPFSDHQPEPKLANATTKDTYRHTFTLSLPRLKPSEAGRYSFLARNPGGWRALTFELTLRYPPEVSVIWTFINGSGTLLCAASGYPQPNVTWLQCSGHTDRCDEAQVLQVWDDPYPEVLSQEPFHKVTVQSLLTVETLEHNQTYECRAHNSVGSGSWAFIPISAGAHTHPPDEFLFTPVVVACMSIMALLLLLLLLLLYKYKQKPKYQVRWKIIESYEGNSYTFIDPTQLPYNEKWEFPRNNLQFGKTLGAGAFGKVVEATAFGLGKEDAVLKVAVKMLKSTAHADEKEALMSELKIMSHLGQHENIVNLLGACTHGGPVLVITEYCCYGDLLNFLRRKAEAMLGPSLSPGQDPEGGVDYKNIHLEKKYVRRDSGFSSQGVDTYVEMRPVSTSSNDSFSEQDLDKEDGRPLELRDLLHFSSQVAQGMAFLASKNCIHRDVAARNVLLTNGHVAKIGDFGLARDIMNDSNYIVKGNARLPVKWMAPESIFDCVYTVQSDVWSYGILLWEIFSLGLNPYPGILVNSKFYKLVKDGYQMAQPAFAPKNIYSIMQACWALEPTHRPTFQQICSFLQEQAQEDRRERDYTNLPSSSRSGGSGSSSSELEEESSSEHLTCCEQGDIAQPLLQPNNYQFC
The test can be described thus: In vitro inhibition of CSF-1R receptor tyrosine phosphorylation in transfected HEK293H cells stimulated with MCSF. The format is cell-based. To be noted: HEK293-H, tested at about 1 μM; HEK293H cells; read-out: pCSF1R percent inhibition. The protocol:
The lysate was then transferred to total CSF-1R antibody coated 96-well plates that had already been blocked with 3% Blocker A from Mesoscale discovery (MSD) for 2 hours and washed afterwards. Lysates were incubated overnight at 4° C. and the plates were then washed 4× with MSD Tris Wash Buffer. […] The plates were read on the Sector 6000 instrument (MSD). Raw data was imported in Abase and EC50s calculated with XL-fit data analysis software.

The target of the next test is T3, kinase domain of PDGFRβ (Homo sapiens, UniProt P09619).
T3 construct: The kinase domain of PDGFRβ was assayed in 50 mM Hepes; purchased Invitrogen P3082
T3 sequence (P09619 600-962 limits assumed): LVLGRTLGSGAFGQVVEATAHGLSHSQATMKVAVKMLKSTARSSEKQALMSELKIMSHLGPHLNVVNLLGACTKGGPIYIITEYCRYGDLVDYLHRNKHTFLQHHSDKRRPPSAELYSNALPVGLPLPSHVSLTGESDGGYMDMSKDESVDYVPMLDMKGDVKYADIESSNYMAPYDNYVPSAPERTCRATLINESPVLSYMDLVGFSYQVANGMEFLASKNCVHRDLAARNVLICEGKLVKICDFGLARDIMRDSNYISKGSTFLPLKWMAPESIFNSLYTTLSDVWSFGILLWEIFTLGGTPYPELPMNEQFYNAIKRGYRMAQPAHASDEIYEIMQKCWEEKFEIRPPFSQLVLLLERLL
The test is described as follows: Inhibition of PDGFRb kinase signaling in an in vitro biochemical assay (alphascreen). The settings on record: tested at about 1 μM, read-out: PDGFRβ percent inhibition.

Test [3] deals with MNFS60 (murine AML cells). The test is described as follows: Cell viability assay in MCSF dependent MNFS60 cells (Cell Titer Glo). The format is cell-based. The settings on record: Mus musculus, tested at about 1 μM, read-out: M-NFS-60 CP percent inhibition. Summed up: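 3-fold DMSO dilution series (500× stocks); MCSF 10 ng/ml final; 72 hrs, 37° C., 5% CO2; CellTiter-Glo read-out; n=3; EC50 fitted.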
In general terms: Cellular ATP, detected with luciferase, serves as a proxy for viable cell number.

In a further test the target is T4, kinase domain of cKIT (Homo sapiens, UniProt P10721).
T4 construct: The kinase domain of cKIT was assayed in 50 mM Hepes; purchased Upstate 14-559
T4 sequence (P10721 589-937 limits assumed): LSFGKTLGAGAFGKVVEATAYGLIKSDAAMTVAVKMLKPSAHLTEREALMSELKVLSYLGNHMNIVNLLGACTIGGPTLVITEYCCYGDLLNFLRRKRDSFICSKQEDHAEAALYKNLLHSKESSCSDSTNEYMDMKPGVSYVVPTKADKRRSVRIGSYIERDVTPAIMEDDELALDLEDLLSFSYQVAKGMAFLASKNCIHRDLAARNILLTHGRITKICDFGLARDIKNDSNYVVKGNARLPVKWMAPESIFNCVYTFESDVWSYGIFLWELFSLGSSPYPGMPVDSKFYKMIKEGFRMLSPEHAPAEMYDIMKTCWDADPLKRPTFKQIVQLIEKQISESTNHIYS
The test can be described thus: Inhibition of cKIT kinase signaling in an in vitro biochemical assay (alphascreen). The settings on record: tested at about 1 μM, read-out: cKit percent inhibition.

The term inhibition denotes the relative decrease from the control value, in per cent. For the molecule `CNC(=O)c1cc(Oc2ccc3nc(NCc4ccc(Cl)cc4)oc3c2)ccn1` [Compound 27, 4-[2-(4-Chloro-benzylamino)-benzooxazol-6-yloxy]-pyridine-2-carboxylic acid methylamide], the inhibition at 1 µM in test [1] was determined as 99%; in test [2], 96%; at kinase domain of PDGFRβ it was 28%; in test [3] (MNFS60 cells), 97%.
In the same order, the values of `CNC(=O)c1cc(Oc2ccc3nc(N[C@H](C)c4cccc5ccccc45)oc3c2)ccn1` [Compound 18, 4-[2-((R)-1-Naphthalen-1-yl-ethylamino)-benzooxazol-6-yloxy]-pyridine-2-carboxylic acid methylamide] are 100%, 74%, 35% and 91%.
In the same order, the values of `CNC(=O)c1cc(Oc2ccc3nc(NCc4cccc(Cl)c4)oc3c2)ccn1` [Compound 42, 4-[2-(3-Chloro-benzylamino)-benzooxazol-6-yloxy]-pyridine-2-carboxylic acid methylamide] are 99%, 97%, 12% and 100%.
In the same order, the values of `CNC(=O)c1cc(Oc2ccc3nc(NCC4CCCCC4)oc3c2)ccn1` [Compound 21, 4-[2-(Cyclohexylmethyl-amino)-benzooxazol-6-yloxy]-pyridine-2-carboxylic acid methylamide] are 99%, 65%, 0% and 55%.
Regarding `CNC(=O)c1cc(Oc2ccc3nc(NC[C@@H]4C[C@H]5CC[C@@H]4C5(C)C)oc3c2)ccn1` [Compound 15, 4-{2-[((1S,2R,4R)-7,7-Dimethyl-bicyclo[2.2.1]hept-2-ylmethyl)-amino]-benzooxazol-6-yloxy}-pyridin-2-carboxylic acid methylamide], the inhibition at 1 µM in test [1] is 100%; in test [2] it was 92%; on kinase domain of PDGFRβ, 88%; in test [3] (MNFS60 cells), 97%.
For `COc1cc2nccc(Oc3ccc4nc(Nc5ccc6c(c5)OCCO6)oc4c3)c2cc1OC` [Compound 4, (2,3-Dihydro-benzo[1,4]dioxin-6-yl)-[6-(6,7-dimethoxy-quinolin-4-yloxy)-benzooxazol-2-yl]-amine], the inhibition at 1 µM in test [1] was 100%; in test [2], 91%; in test [3] (MNFS60 cells), 100%.
Consider `CNC(=O)c1cc(Oc2ccc3nc(NCc4ccccc4)oc3c2)ccn1` [Compound 41, 4-(2-Benzylamino-benzooxazol-6-yloxy)-pyridine-2-carboxylic acid methylamide], for which the inhibition at 1 µM in test [1] is 100%; in test [2], 94%; on kinase domain of PDGFRβ, 30%; in test [3] (MNFS60 cells) it was 100%.
Take `CC(=O)Nc1cc(Oc2ccc3nc(NCC4CCCCC4)oc3c2)ccn1` [Compound 34, N-{4-[2-(Cyclohexylmethyl-amino)-benzooxazol-6-yloxy]-pyridin-2-yl}-acetamide]: the inhibition at 1 µM worked out at 99% in test [1], 65% in test [2], 89% at kinase domain of PDGFRβ and 68% in test [3] (MNFS60 cells).
In the same order, the values of `CNC(=O)c1cc(Oc2ccc3nc(N[C@H]4C[C@H]5C[C@@H]([C@@H]4C)C5(C)C)oc3c2)ccn1` [Compound 13, 4-[2-((1S,2S,3S,5R)-2,6,6-Trimethyl-bicyclo[3.1.1]hept-3-ylamino)-benzooxazol-6-yloxy]-pyridin-2-carboxylic acid methylamide] are 99%, 75%, 65% and 76%.
Turning to `CNC(=O)c1cc(Oc2ccc3nc(Nc4ccc5c(c4)OCCO5)oc3c2)ccn1` [Compound 5, 4-[2-(2,3-Dihydro-benzo-[1,4]dioxin-6-ylamino)-benzooxazol-6-yloxy]-pyridin-2-carboxylic acid methylamide], the inhibition at 1 µM was found to be 99% in test [1], 93% in test [2] and 100% in test [3] (MNFS60 cells).
In the same order, the values of `CNC(=O)c1cc(Oc2ccc3nc(NCc4ccc(Cl)cc4Cl)oc3c2)ccn1` [Compound 9, 4-[2-(2,4-Dichloro-benzylamino)-benzooxazol-6-yloxy]-pyridin-2-carboxylic acid methylamide] are 99%, 75% and 58%.
For the molecule `CNC(=O)c1cc(Oc2ccc3nc(N[C@@H](C)c4ccccc4)oc3c2)ccn1` [Compound 7, 4-[2-((S)-1-Phenyl-ethylamino)-benzooxazol-6-yloxy]-pyridin-2-carboxylic acid methylamide], the inhibition at 1 µM worked out at 94% in test [1], 21% in test [2] and 17% in test [3] (MNFS60 cells).
In the case of `CNC(=O)c1cc(Oc2ccc3nc(N[C@H](C)c4ccccc4)oc3c2)ccn1` [Compound 2, 4-[2-((R)-1-Phenyl-ethylamino)-benzooxazol-6-yloxy]-pyridine-2-carboxylic acid methylamide], the inhibition at 1 µM came out at 100% in test [1], 80% in test [2] and 63% in test [3] (MNFS60 cells).
On to `CNC(=O)c1cc(Oc2ccc3nc(NCc4ccccc4Cl)oc3c2)ccn1` [Compound 8, 4-[2-(2-Chloro-benzylamino)-benzooxazol-6-yloxy]-pyridin-2-carboxylic acid methylamide], for which the values for the inhibition at 1 µM in test [1], in test [2] and in test [3] (MNFS60 cells) were 99%, 92% and 60%, respectively.
In the same order, the values of `CNC(=O)c1cc(Oc2ccc3nc(N[C@H]4CCCC[C@@H]4O)sc3c2)ccn1` [Compound 137, 4-[2-((1S,2S)-2-Hydroxy-cyclohexylamino)-benzothiazol-6-yloxy]-pyridine-2-carboxylic acid methylamide] are 100%, 98% and 100%.
Consider `Fc1ccc2c(Oc3ccc4nc(NCC5CCCCC5)sc4c3)ccnc2c1` [Example 227, N-(cyclohexylmethyl)-6-(7-fluoroquinolin-4-yloxy)benzo[d]thiazol-2-amine], for which the inhibition at 1 µM turned out to be 100% in test [1] (compounds of Table 3), 100% at kinase domain of cKIT (compounds of Table 3), 47% at kinase domain of PDGFRβ (compounds of Table 3) and 65% in test [3] (compounds of Table 3).
On to `CNc1cc(Oc2ccc3nc(N[C@@H]4CCCC[C@H]4O)sc3c2)ccn1` [Example 368, (1R,2R)-2-(6-(2-(methylamino)pyridin-4-yloxy)benzo[d]thiazol-2-ylamino)cyclohexanol], for which the inhibition at 1 µM in test [1] was determined as 100%; on kinase domain of cKIT it was 24%; on kinase domain of PDGFRβ it was 8%; in test [3] (MCSF dependent MNFS60 cells) it was 12%.
Consider `CNC(=O)c1cc(Oc2ccc3nc(N[C@H]4CCCN(C(C)=O)C4)sc3c2)ccn1` [Example 304, (S)-4-(2-(1-acetylpiperidin-3-ylamino)benzo[d]thiazol-6-yloxy)-N-methylpicolinamide], for which the inhibition at 1 µM worked out at 100% in test [1], 9% at kinase domain of cKIT, 18% on kinase domain of PDGFRβ and 23% in test [3] (MCSF dependent MNFS60 cells).
Consider `NC(=O)c1cc(Oc2ccc3nc(NCC4CCCCC4)oc3c2)ccn1` [Compound 69, 4-[2-(Cyclohexylmethyl-amino)-benzooxazol-6-yloxy]-pyridine-2-carboxylic acid amide], for which the inhibition at 1 µM was determined as 100% in test [1], 0% on kinase domain of cKIT, 0% on kinase domain of PDGFRβ and 0% in test [3] (MNFS60 cells).
